According to publication PMC9728921, “Characterization of a KDM5 small molecule inhibitor with antiviral activity against hepatitis B virus” (PLOS ONE, 2022):
Entries after “also recorded” stand apart in the source; their conditions may differ.

Assays:
[1] = test system: HBV (genotype C, GTC); test: HBV mouse efficacy model (uPA-SCID mice with humanized livers), serum HBV DNA and HBsAg; assay type: in vivo; conditions: 30 or 100 mg/kg p.o. qd x 7d, one week on one week off, 56 days
Experimental: The in vivo and in vitro hepatocyte infection model portions of the study were performed by PhoenixBio (Higashi-Hiroshima, Japan). […] Mice were infected with HBV GTC virus (PhoenixBio; PBB004, Lot #160205) and had serum HBV titer levels greater than 1.0E+08 copies/mL seven days prior to study initiation. HBV-infected mice were treated once daily (p.o.) for seven days (Day 0–6) with deionized water for acclimation. […] Fifty μL of blood was collected from animals under isoflurane anesthesia via the retro-orbital plexus/sinus and centrifuged for serum collection for HBsAg and HBV DNA measurements described below. At termination of study (Day 56), 100–200 mg of tissue was harvested from the left lateral liver lobe of all animals.
For in vivo mouse studies, serum HBsAg concentrations were determined by SRL, Inc. (Tokyo, Japan) based on the Chemiluminescent Enzyme Immuno Assay (CLEIA) developed by Fujirebio (Lumipulse® Presto II).
HBV DNA was extracted from 5 μL of serum using the SMITEST EX-R&D Nucleic Acid Extraction Kit (Medical & Biological Laboratories, CO. LTD, Nagoya, Japan) and dissolved in 20 μL nuclease-free water (Thermo Fisher Scientific Inc., Waltham, MA). […] The average serum HBV DNA level was calculated from the values of the two separate wells. […]

[2] = target: T1, KDM5D (Homo sapiens, UniProt Q9BY66); test: KDM5D enzymatic assay (LANCE TR-FRET); assay type: biochemical; conditions: IC50 of KDM5D over KDM5A
T1 construct: purchased Eurofins Cerep SA (assay run there as a contract service)
Experimental: KDM5D was tested using a LANCE TR-FRET assay by Eurofins Cerep SA (France). All concentrations were final unless noted otherwise. Inhibitors were added to a mixture containing 45 mM HEPES/Tris-HCl (pH 7.5), 5 μM ferrous ammonium sulfate, 100 μM ascorbic acid, 10 μM 2-oxoglutarate, 0.01% Tween 20, 0.01% BSA, and 10 ng of enzyme, followed by addition of 100 nM biotin-H3K4me3 substrate. The 10 μL reaction mixture was incubated for 10 min at room temperature and quenched through the addition of 1 mM EDTA to reach a final concentration of 0.33 mM EDTA. After 5 min, the Eu-labeled anti-methyl histone H3K4me1-2 antibody and the Ulight streptavidin were added, and the mixture was incubated for 60 min. The fluorescence resonance energy transfer was measured using an excitation wavelength of 320 nm and emission wavelengths of 620 nm and 665 nm on an Envision plate reader (Perkin Elmer).
(§1) Data was analyzed using GraphPad Prism 6.0 (La Jolla, CA). […] IC50 values were calculated as an average of at least two independent experiments.

[3] = target: KDM5C (Homo sapiens, UniProt P41229); test: KDM5C enzymatic assay (AlphaLISA); assay type: biochemical
Experimental: The following assay protocol was used for all histone demethylases tested except KDM1A, KDM5A, B, and D, which are described below. Compounds were serially diluted into a 384-well Alpha plate as a DMSO solution and mixed with 5 μL reaction buffer (buffer A) containing 50 mM HEPES (pH 7.0), 0.1% BSA, and 0.003% Tween-20. The enzyme of interest was pre-incubated with 15 μM of Fe^2+ for 10 min (except 30 min for KDM2B) in reaction buffer A. 5 μL of the enzyme mixture was added to each of the compound-containing wells and incubated for 10 min. The reaction was started by addition of a 5 μL mixture containing 300 nM peptide substrate, 75 μM L-ascorbic acid, and 30 μM α-ketoglutarate in buffer A. This final 15 μL of reaction mixture was incubated for 20 min for KDM5B and 1 hour for the other KDM enzymes. The reaction was quenched with 10 μL of diluted AlphaLISA Acceptor beads (1:400) in Epigenetics Buffer and incubated for 60 min. The Donor beads were diluted 1:400 into Epigenetics Buffer in the dark and 10 μL of this was added to each well and incubated for another 60 min in the dark. The assay plates were read on an Enspire plate reader (PerkinElmer) using a standard AlphaLISA program.
as §1

[4] = test system: KDM enzymes; test: KDM enzyme panel, selectivity across KDM families; assay type: biochemical, human
Experimental: The following assay protocol was used for all histone demethylases tested except KDM1A, KDM5A, B, and D, which are described below. Compounds were serially diluted into a 384-well Alpha plate as a DMSO solution and mixed with 5 μL reaction buffer (buffer A) containing 50 mM HEPES (pH 7.0), 0.1% BSA, and 0.003% Tween-20. The enzyme of interest was pre-incubated with 15 μM of Fe^2+ for 10 min (except 30 min for KDM2B) in reaction buffer A. 5 μL of the enzyme mixture was added to each of the compound-containing wells and incubated for 10 min. […] The assay plates were read on an Enspire plate reader (PerkinElmer) using a standard AlphaLISA program.
KDM5A and 5B were tested using CisBio HTRF assay platform by Reaction Biology Corp (Malvern, PA). […] The fluorescence resonance energy transfer was measured using an excitation wavelength of 320 nm and emission wavelength of 665 nm on an Envision plate reader (Perkin Elmer). […]
The KDM1 assay was conducted in the presence of […] but without Fe(II) or ascorbic acid. […] The assay plates were read on an Enspire plate reader (PerkinElmer) using a standard AlphaLISA program.
as §1

Sequence of KDM5C (P41229 whole entry): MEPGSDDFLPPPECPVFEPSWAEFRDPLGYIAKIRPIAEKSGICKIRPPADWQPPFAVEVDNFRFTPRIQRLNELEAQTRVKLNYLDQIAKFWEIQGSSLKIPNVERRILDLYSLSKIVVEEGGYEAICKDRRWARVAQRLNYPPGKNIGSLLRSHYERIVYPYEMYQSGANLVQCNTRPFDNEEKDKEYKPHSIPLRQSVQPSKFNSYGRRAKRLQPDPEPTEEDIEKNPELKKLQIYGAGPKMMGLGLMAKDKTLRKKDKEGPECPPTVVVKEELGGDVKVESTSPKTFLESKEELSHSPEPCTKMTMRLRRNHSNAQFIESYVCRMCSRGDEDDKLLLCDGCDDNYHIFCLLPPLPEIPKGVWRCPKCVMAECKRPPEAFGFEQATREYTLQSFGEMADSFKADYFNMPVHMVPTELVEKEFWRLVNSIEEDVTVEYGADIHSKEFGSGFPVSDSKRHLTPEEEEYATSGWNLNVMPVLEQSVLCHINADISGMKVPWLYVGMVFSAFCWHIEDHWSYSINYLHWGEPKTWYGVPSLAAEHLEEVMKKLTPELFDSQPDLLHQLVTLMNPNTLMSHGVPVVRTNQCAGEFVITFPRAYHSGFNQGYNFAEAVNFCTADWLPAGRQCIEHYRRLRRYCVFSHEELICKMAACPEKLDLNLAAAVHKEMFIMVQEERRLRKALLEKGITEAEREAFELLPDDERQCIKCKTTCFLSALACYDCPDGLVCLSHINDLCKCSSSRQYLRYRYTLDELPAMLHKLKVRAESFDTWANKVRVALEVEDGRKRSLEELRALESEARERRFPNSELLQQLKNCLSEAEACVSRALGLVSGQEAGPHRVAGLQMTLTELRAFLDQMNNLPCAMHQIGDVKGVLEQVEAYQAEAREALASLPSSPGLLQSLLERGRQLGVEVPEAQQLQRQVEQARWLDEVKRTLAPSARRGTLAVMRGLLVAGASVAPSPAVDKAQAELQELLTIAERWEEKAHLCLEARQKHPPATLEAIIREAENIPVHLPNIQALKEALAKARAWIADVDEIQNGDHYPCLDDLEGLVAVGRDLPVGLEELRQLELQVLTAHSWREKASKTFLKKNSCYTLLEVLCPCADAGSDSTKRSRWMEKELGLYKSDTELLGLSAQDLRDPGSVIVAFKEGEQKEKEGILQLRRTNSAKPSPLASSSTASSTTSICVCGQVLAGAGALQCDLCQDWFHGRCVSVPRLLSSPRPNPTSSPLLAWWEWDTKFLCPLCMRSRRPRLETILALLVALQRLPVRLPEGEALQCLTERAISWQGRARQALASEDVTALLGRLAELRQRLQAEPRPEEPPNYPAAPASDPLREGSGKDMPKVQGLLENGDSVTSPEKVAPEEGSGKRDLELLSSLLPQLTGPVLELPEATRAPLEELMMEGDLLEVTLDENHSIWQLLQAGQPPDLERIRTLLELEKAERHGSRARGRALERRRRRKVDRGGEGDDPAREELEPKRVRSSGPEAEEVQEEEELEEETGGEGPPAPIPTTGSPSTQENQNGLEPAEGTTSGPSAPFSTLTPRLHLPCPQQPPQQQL
T1 sequence (Q9BY66 whole entry): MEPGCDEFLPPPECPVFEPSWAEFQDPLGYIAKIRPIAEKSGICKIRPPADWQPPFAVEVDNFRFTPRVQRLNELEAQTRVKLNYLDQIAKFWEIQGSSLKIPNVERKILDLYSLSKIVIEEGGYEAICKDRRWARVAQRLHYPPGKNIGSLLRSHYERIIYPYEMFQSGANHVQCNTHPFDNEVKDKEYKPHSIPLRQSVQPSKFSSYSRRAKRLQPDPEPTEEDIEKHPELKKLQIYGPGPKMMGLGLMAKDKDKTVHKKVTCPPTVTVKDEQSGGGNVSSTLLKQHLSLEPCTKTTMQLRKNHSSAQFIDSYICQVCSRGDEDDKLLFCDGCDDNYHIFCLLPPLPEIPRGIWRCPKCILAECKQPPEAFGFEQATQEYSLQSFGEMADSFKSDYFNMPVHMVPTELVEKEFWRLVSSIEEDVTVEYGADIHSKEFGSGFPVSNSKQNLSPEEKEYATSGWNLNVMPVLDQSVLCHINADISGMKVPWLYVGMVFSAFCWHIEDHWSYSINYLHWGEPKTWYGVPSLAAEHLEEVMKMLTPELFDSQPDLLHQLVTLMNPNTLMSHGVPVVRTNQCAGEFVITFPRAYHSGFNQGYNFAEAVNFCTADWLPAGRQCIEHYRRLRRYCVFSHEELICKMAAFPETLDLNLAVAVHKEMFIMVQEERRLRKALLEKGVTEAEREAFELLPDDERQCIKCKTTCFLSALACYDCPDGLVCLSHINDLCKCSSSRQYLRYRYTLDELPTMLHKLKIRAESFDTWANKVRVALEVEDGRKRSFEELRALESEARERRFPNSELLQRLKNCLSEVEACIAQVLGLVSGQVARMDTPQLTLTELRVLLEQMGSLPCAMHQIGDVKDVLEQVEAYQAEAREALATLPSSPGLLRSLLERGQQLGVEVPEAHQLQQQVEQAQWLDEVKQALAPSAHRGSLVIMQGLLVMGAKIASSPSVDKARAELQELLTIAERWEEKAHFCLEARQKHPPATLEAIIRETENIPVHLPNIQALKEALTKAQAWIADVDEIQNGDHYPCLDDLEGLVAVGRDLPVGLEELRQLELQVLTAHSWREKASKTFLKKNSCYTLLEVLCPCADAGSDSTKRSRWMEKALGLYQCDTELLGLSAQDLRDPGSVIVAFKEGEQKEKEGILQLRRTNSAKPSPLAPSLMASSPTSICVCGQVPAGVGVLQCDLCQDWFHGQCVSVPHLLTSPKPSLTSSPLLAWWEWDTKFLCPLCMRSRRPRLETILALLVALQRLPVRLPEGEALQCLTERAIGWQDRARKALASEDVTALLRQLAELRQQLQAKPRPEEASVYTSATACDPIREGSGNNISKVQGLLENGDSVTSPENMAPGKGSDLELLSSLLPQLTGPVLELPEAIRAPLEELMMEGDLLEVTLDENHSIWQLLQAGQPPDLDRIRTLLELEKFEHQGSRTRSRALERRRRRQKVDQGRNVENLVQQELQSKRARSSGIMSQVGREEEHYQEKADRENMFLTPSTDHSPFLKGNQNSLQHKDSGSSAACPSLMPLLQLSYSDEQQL

Row | SMILES | antiviral efficacy: serum HBsAg and HBV DNA [1] | Fold Selectivity Compared to KDM5A [2] | Fold Selectivity Compared to KDM5A ([3]; IC50 of KDM5C over KDM5A) | IC50 ([3]; enzyme concentration 1 nM) | fold selectivity for KDM5A and KDM5B over members of the KDM4 family ([4]; KDM4A –C) | fold selectivity over members of the other KDM enzyme families tested ([4]; printed as from > 1,100- to > 278,000-fold, relative to KDM5A)
1 | CCOC(=O)c1ccnc(CNCC(=O)N(CC)CCN(C)C)c1 [GS-5801] | did not result in changes in the amounts of HBsAg or HBV DNA; also recorded: did not have antiviral activity at either dose tested | – | – | – | – | –
2 | CCN(CCN(C)C)C(=O)CNCc1cc(C(=O)O)ccn1 [GS-080] | – | 183 fold | 10 fold | 3.7 nM | ≥ 13 fold | > 1,100 fold
